Laboratory results as given in publication PMC4052304, “New Benzoxazine Secondary Metabolites from an Arctic Actinomycete” (Marine Drugs, 2014).
Like-named read-outs stand apart in the source and are kept apart here.

Experiments:
[1] = target: Candida albicans isocitrate lyase (ICL) (Candida albicans, UniProt Q9P8Q7); assay: Inhibition of the isocitrate lyase (ICL) activity assay; assay type: biochemical; conditions: for inhibitory activity towards ICL (in words): even at high concentrations (100 μg/mL)
Sequence of Candida albicans isocitrate lyase (ICL) (Q9P8Q7 whole entry): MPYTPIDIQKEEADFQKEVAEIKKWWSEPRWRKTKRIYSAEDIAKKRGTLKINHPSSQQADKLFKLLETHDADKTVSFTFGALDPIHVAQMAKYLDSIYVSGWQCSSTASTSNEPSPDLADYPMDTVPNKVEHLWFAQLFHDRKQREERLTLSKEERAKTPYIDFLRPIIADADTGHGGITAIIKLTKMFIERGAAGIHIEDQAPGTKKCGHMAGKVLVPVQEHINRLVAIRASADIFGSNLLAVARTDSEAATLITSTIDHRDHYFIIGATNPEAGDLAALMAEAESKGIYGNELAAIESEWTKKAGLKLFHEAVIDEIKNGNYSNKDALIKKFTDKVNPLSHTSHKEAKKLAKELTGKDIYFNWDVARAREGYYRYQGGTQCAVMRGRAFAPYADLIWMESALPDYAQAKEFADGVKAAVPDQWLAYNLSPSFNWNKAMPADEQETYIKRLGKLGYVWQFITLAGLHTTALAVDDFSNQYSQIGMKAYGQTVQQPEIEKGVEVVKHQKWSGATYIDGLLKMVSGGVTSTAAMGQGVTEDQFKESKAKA
Protocol: The formation of glyoxylate phenylhydrazone in the presence of phenylhydrazine and isocitrate was measured spectrophotometrically at 324 nm. The enzyme reaction mixture (1 mL) included 1.27 mM threo-DS (+) isocitrate, 3.75 mM MgCl2, 4.1 mM phenylhydrazine, 20 mM sodium phosphate buffer (pH 7.0), and 2.5 μg/mL purified C. albicans ICL. The reaction was performed at 37 °C for 30 min, and the protein concentration was measured using the Bradford method and a Bio-Rad protein assay Kit (Bio-Rad, Alfred Nobel Dr. Hercules, CA, USA) with bovine serum albumin as a standard.

[2] = tested on: HCT116, A549, SNU638, SK-HEP1, K562 and MDA-MB231 human carcinoma cell lines; assay: Anti-proliferative activity, SRB assay, panel of six human carcinoma cell lines; assay type: cell-based; conditions: 72 h
Protocol: (§1) Cell proliferation was analyzed using the sulforhodamine B (SRB) assay. Six human cancer cell lines (HCT116, MDA-MB231, SNU638, A549, K562, and SK-HEP1 at 3 × 10^4 cells/mL) were seeded in 96-well plates at different compound concentrations before incubating at 37 °C in a humidified atmosphere with 5% CO2. After 72 h of treatment, the cells were fixed with a 10% TCA solution for 1 h before staining the cellular proteins with 0.4% SRB in 1% acetic acid. The stained cells were dissolved in 10 mM Tris buffer (pH 10.0). The effects of the compounds on cell proliferation were calculated as percentages relative to the solvent-treated control. In addition, the IC50 values were determined by nonlinear regression analysis (percent survival versus concentration).

[3] = tested on: HCT116 (colon cancer) cells; assay: Anti-proliferative activity, SRB assay, HCT116; assay type: cell-based; conditions: Homo sapiens, HCT-116, 72 h, read-out: IC50, cytotoxicity against HCT116
Protocol: as §1

A549 (lung cancer) cells = assay: Anti-proliferative activity, SRB assay, A549; assay type: cell-based; conditions: Homo sapiens, A549, 72 h, read-out: IC50, cytotoxicity against A549
Protocol: as §1

[4] = tested on: SNU638 (gastric cancer) cells; assay: Anti-proliferative activity, SRB assay, SNU638; assay type: cell-based; conditions: Homo sapiens, SNU-638, 72 h, read-out: IC50, cytotoxicity against SNU638
Protocol: as §1

[5] = tested on: SK-HEP1 (liver cancer) cells; assay: Anti-proliferative activity, SRB assay, SK-HEP1; assay type: cell-based; conditions: Homo sapiens, SK-HEP1, 72 h, read-out: IC50, cytotoxicity against SK-HEP1
Protocol: as §1

[6] = tested on: K562 (leukemia cancer) cells; assay: Anti-proliferative activity, SRB assay, K562; assay type: cell-based; conditions: Homo sapiens, K562, 72 h, read-out: IC50, cytotoxicity against K562
Protocol: as §1

[7] = tested on: MDA-MB231 (breast cancer) cells; assay: Anti-proliferative activity, SRB assay, MDA-MB231; assay type: cell-based; conditions: Homo sapiens, MDA-MB-231, 72 h, read-out: IC50, cytotoxicity against MDA-MB231
Protocol: as §1

[8] = purified C. albicans ICL 2.5 μg/mL, 37 °C, 30 min, pH 7.0, read-out: IC50, inhibition of Candida albicans isocitrate lyase (ICL)

Row | Compound | IC50 [1, 8] [µM] | IC50 [1] [µM] | IC50 [3] [µM] | IC50 (A549 (lung cancer) cells) [µM] | IC50 [4] [µM] | IC50 [5] [µM] | IC50 [6] [µM] | IC50 [7] [µM] | inhibitory activity towards ICL (in words) [1] | further results
1 | O=C(O)CC[N+](=O)[O-] [3-nitropropionic acid, reference compound] | 35.2 | – | – | – | – | – | – | – | – | –
2 | C=C1Oc2cc(OC)cc(C(=O)OC[C@H]3O[C@H](OC[C@H]4O[C@H](O)[C@H](O)[C@@H](O)[C@@H]4O)[C@H](O)[C@@H](O)[C@@H]3O)c2NC1=O [Compound 1, arcticoside] | 30.4 | – | – | – | – | – | – | – | – | cytotoxicity against human carcinoma cell lines (in words) [2]: did not display notable inhibitory activity
3 | C=C1Oc2cc(OC)cc(C(=O)O[C@H]3COC(=O)C[C@H](N)c4cc(O)c(c(Cl)c4)O[C@@H]4c5ccc3c(Cl)c5C3=CC=C[C@@]34O[C@@H]3OC(C)(C)[C@@H](N(C)C)[C@@H](O)[C@H]3O)c2NC1=O [Compound 2, C-1027 chromophore-V] | – | 37.9 | 2.7 | 14.7 | 9.8 | 7.9 | 25.1 | 0.9 | – | –
4 | C=C1Oc2cc(OC)cc(C(=O)O[C@H]3COC(=O)C[C@H](N)c4cc(O)c(c(Cl)c4)O[C@@H]4c5ccc3cc5C3=CC=C[C@@]34O[C@@H]3OC(C)(C)[C@@H](N(C)C)[C@@H](O)[C@H]3O)c2NC1=O [Compound 3, C-1027 chromophore-III] | – | 25.6 | 0.6 | 2.2 | 1.1 | 0.9 | 4.8 | 44 | – | –
5 | CC(=O)N[C@H]1CC(=O)OC[C@H](O)c2ccc3c(c2Cl)C2=CC=C[C@]2(O[C@@H]2OC(C)(C)[C@@H](N(C)C)[C@@H](O)[C@H]2O)[C@@H]3Oc2c(O)cc1cc2Cl [Compound 4, fijiolide A] | – | – | – | – | – | – | – | – | no activity | –
6 | CN(C)[C@H]1[C@@H](O)[C@@H](O)[C@H](O[C@]23C=CC=C2c2c4ccc(c2Cl)[C@@H](O)COC(=O)C[C@H](N)c2cc(O)c(c(Cl)c2)O[C@H]43)OC1(C)C [Compound 5, fijiolide B] | – | – | – | – | – | – | – | – | no activity | –
